Assays:
Assay type in all cases: in vivo
[1] = tested on: velvetleaf (Abutilon theophrasti); experiment: Test B pre-/postemergence; set-up: key: 0 is no effect; 10 is complete control
Source text: (§1) Seeds of bedstraw (Galium aparine), blackgrass (Alopecurus myosuroides), broadleaf signalgrass (Brachiaria decumbens), cocklebur (Xanthium strumarium), corn (Zea mays), crabgrass (Digitaria sanguinalis), giant foxtail (Setaria faberii), lambsquarters (Chenopodium album), momingglory (Ipomoea hederacea), pigweed (Amaranthus retroflexus), rape (Brassica napus), soybean (Glycine max), sugar beet (Beta vulgaris), velvetleaf (Abutilon theophrasti), wheat (Triticum aestivum), wild oat (Avena fatua) and purple nutsedge (Cyperus rotundus) tubers were planted and treated preemergence with test chemicals formulated in a non-phytotoxic solvent mixture which included a surfactant.
(§2) At the same time, these crop and weed species were also treated with postemergence applications of test chemicals formulated in the same manner. Plants ranged in height from 2 to 18 cm (1- to 4-leaf stage) for postemergence treatments. Plant species in the flood test consisted of rice (Oryza sativa), smallflower flatsedge (Cyperus difformis), duck salad (Heteranthera limosa) and bamyardgrass (Echinochloa crus-galli) grown to the 2-leaf stage for testing. Treated plants and controls were maintained in a greenhouse for twelve to sixteen days, after which all species were compared to controls and visually evaluated. Plant response ratings, summarized in Table B, are based on a scale of 0 to 10 where 0 is no effect and 10 is complete control. A dash (−) response means no test result.

[2] = tested on: giant foxtail (Setaria faberii); experiment: Test B pre-/postemergence; set-up: key: 0 is no effect; 10 is complete control
Source text: as §1, §2

corn (Zea mays) = experiment: Test B pre-/postemergence; set-up: key: 0 is no effect; 10 is complete control
Source text: as §1, §2

[3] = tested on: broadleaf signalgrass (Brachiaria decumbens); experiment: Test B pre-/postemergence; set-up: key: 0 is no effect; 10 is complete control
Source text: as §1, §2

[4] = tested on: sugar beet (Beta vulgaris); experiment: Test B pre-/postemergence; set-up: key: 0 is no effect; 10 is complete control
Source text: as §1, §2

wild oat (Avena fatua) = experiment: Test B pre-/postemergence; set-up: key: 0 is no effect; 10 is complete control
Source text: as §1, §2

[5] = tested on: bedstraw (Galium aparine); experiment: Test B pre-/postemergence; set-up: key: 0 is no effect; 10 is complete control
Source text: as §1, §2

[6] = tested on: cocklebur (Xanthium strumarium); experiment: Test B pre-/postemergence; set-up: key: 0 is no effect; 10 is complete control
Source text: as §1, §2

soybean (Glycine max) = experiment: Test B pre-/postemergence; set-up: key: 0 is no effect; 10 is complete control
Source text: as §1, §2

[7] = tested on: pigweed (Amaranthus retroflexus); experiment: Test B pre-/postemergence; set-up: key: 0 is no effect; 10 is complete control
Source text: as §1, §2

[8] = tested on: crabgrass (Digitaria sanguinalis); experiment: Test B pre-/postemergence; set-up: key: 0 is no effect; 10 is complete control
Source text: as §1, §2

[9] = tested on: purple nutsedge (Cyperus rotundus); experiment: Test B pre-/postemergence; set-up: key: 0 is no effect; 10 is complete control
Source text: as §1, §2

rape (Brassica napus) = experiment: Test B pre-/postemergence; set-up: key: 0 is no effect; 10 is complete control
Source text: as §1, §2

[10] = tested on: blackgrass (Alopecurus myosuroides); experiment: Test B pre-/postemergence; set-up: key: 0 is no effect; 10 is complete control
Source text: as §1, §2

[11] = tested on: wheat (Triticum aestivum); experiment: Test B pre-/postemergence; set-up: key: 0 is no effect; 10 is complete control
Source text: as §1, §2

[12] = tested on: momingglory (Ipomoea hederacea); experiment: Test B pre-/postemergence; set-up: key: 0 is no effect; 10 is complete control
Source text: as §1, §2

[13] = tested on: duck salad (Heteranthera limosa); experiment: Test B flood test
Method in brief: (§3)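 Plants were grown to the 2-leaf stage before treatment with test chemical, then held in a greenhouse for twelve to sixteen days. Injury was visually rated against untreated controls on a 0–10 scale, where 0 is no effect and 10 is complete control.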

[14] = tested on: bamyardgrass (Echinochloa crus-galli); experiment: Test B flood test
Method in brief: as §3

[15] = tested on: smallflower flatsedge (Cyperus difformis); experiment: Test B flood test
Method in brief: as §3

rice (Oryza sativa) = experiment: Test B flood test
Method in brief: as §3

[16] = Rate 62 g/ha, Postemergence (flood test)
[17] = Rate 125 g/ha, Postemergence, flood test
[18] = Rate 250 g/ha, Postemergence (flood test species)

`Cc1cnc(-c2ccc(F)c(Cl)c2)nc1Cc1cccc(C(F)(F)F)c1` [Compound 25] was tested, and the “Plant response rating, Velvetleaf” value ([1]; Rate 62 g/ha, Postemergence) was 8, the “Velvetleaf plant response rating” value ([1]; Rate 62 g/ha, Preemergence) was 0 and the “Plant response rating, Velvetleaf” value ([1]; Rate 125 g/ha, Postemergence) was 9. The “Velvetleaf plant response rating” value ([1]; Rate 125 g/ha, Preemergence) was 0, the “Plant response rating, Velvetleaf” value ([1]; Rate 250 g/ha, Postemergence) was 9 and the “Plant response rating, Velvetleaf” value ([1]; Rate 250 g/ha, Preemergence) was 2. For the same molecule, the “Plant response rating, Giant foxtail” value ([2]; Rate 62 g/ha, Postemergence) was 3, the “Giant foxtail plant response rating” value ([2]; Rate 62 g/ha, Preemergence) was 1 and the “Plant response rating, Giant foxtail” value ([2]; Rate 125 g/ha, Postemergence) was 6. The “Giant foxtail plant response rating” value ([2]; Rate 125 g/ha, Preemergence) was 4, the “Plant response rating, Giant foxtail” value ([2]; Rate 250 g/ha, Postemergence) was 8 and the “Plant response rating, Giant foxtail” value ([2]; Rate 250 g/ha, Preemergence) was 9. The “Plant response rating, Corn” value (corn (Zea mays); Rate 62 g/ha, Postemergence) was 1, the “Corn plant response rating” value (corn (Zea mays); Rate 62 g/ha, Preemergence) was 0 and the “Plant response rating, Corn” value (corn (Zea mays); Rate 125 g/ha, Postemergence) was 2. For the same molecule, the “Corn plant response rating” value (corn (Zea mays); Rate 125 g/ha, Preemergence) was 0, the “Plant response rating, Corn” value (corn (Zea mays); Rate 250 g/ha, Postemergence) was 3 and the “Plant response rating, Corn” value (corn (Zea mays); Rate 250 g/ha, Preemergence) was 0. For the same molecule, the “Plant response rating, B. signalgrass” value ([3]; Rate 62 g/ha, Postemergence) was 2, the “B. signalgrass plant response rating” value ([3]; Rate 62 g/ha, Preemergence) was 1 and the “Plant response rating, B. signalgrass” value ([3]; Rate 125 g/ha, Postemergence) was 3. The “B. signalgrass plant response rating” value ([3]; Rate 125 g/ha, Preemergence) was 2, the “Plant response rating, B. signalgrass” value ([3]; Rate 250 g/ha, Postemergence) was 3 and the “Plant response rating, B. signalgrass” value ([3]; Rate 250 g/ha, Preemergence) was 6. For the same molecule, the “Plant response rating, Sugarbeets” value ([4]; Rate 62 g/ha, Postemergence) was 10, the “Sugarbeets plant response rating” value ([4]; Rate 62 g/ha, Preemergence) was 6 and the “Plant response rating, Sugarbeets” value ([4]; Rate 125 g/ha, Postemergence) was 10. The “Sugarbeets plant response rating” value ([4]; Rate 125 g/ha, Preemergence) was 8, the “Plant response rating, Sugarbeets” value ([4]; Rate 250 g/ha, Postemergence) was 10 and the “Plant response rating, Sugarbeets” value ([4]; Rate 250 g/ha, Preemergence) was 9. For the same molecule, the “Plant response rating, Wild oats” value (wild oat (Avena fatua); Rate 62 g/ha, Postemergence) was 3, the “Wild oats plant response rating” value (wild oat (Avena fatua); Rate 62 g/ha, Preemergence) was 1 and the “Plant response rating, Wild oats” value (wild oat (Avena fatua); Rate 125 g/ha, Postemergence) was 3. For the same molecule, the “Wild oats plant response rating” value (wild oat (Avena fatua); Rate 125 g/ha, Preemergence) was 3, the “Plant response rating, Wild oats” value (wild oat (Avena fatua); Rate 250 g/ha, Postemergence) was 4 and the “Plant response rating, Wild oats” value (wild oat (Avena fatua); Rate 250 g/ha, Preemergence) was 5. For the same molecule, the “Plant response rating, Bedstraw” value ([5]; Rate 62 g/ha, Postemergence) was 9, the “Bedstraw plant response rating” value ([5]; Rate 62 g/ha, Preemergence) was 1 and the “Plant response rating, Bedstraw” value ([5]; Rate 125 g/ha, Postemergence) was 10. The “Bedstraw plant response rating” value ([5]; Rate 125 g/ha, Preemergence) was 1, the “Plant response rating, Bedstraw” value ([5]; Rate 250 g/ha, Postemergence) was 10 and the “Plant response rating, Bedstraw” value ([5]; Rate 250 g/ha, Preemergence) was 2. The “Plant response rating, Cocklebur” value ([6]; Rate 62 g/ha, Postemergence) was 9, the “Cocklebur plant response rating” value ([6]; Rate 62 g/ha, Preemergence) was 0 and the “Plant response rating, Cocklebur” value ([6]; Rate 125 g/ha, Postemergence) was 9. For the same molecule, the “Cocklebur plant response rating” value ([6]; Rate 125 g/ha, Preemergence) was 0, the “Plant response rating, Cocklebur” value ([6]; Rate 250 g/ha, Postemergence) was 9 and the “Plant response rating, Cocklebur” value ([6]; Rate 250 g/ha, Preemergence) was 8. The “Plant response rating, Soybean” value (soybean (Glycine max); Rate 62 g/ha, Postemergence) was 4, the “Soybean plant response rating” value (soybean (Glycine max); Rate 62 g/ha, Preemergence) was 0 and the “Plant response rating, Soybean” value (soybean (Glycine max); Rate 125 g/ha, Postemergence) was 7. For the same molecule, the “Soybean plant response rating” value (soybean (Glycine max); Rate 125 g/ha, Preemergence) was 0, the “Plant response rating, Soybean” value (soybean (Glycine max); Rate 250 g/ha, Postemergence) was 7 and the “Plant response rating, Soybean” value (soybean (Glycine max); Rate 250 g/ha, Preemergence) was 1. The “Plant response rating, Redroot pigweed” value ([7]; Rate 62 g/ha, Postemergence) was 10, the “Redroot pigweed plant response rating” value ([7]; Rate 62 g/ha, Preemergence) was 1 and the “Plant response rating, Redroot pigweed” value ([7]; Rate 125 g/ha, Postemergence) was 10. The “Redroot pigweed plant response rating” value ([7]; Rate 125 g/ha, Preemergence) was 3, the “Plant response rating, Redroot pigweed” value ([7]; Rate 250 g/ha, Postemergence) was 10 and the “Plant response rating, Redroot pigweed” value ([7]; Rate 250 g/ha, Preemergence) was 9. For the same molecule, the “Plant response rating, Crabgrass” value ([8]; Rate 62 g/ha, Postemergence) was 7, the “Crabgrass plant response rating” value ([8]; Rate 62 g/ha, Preemergence) was 0 and the “Plant response rating, Crabgrass” value ([8]; Rate 125 g/ha, Postemergence) was 7. For the same molecule, the “Crabgrass plant response rating” value ([8]; Rate 125 g/ha, Preemergence) was 0, the “Plant response rating, Crabgrass” value ([8]; Rate 250 g/ha, Postemergence) was 10 and the “Plant response rating, Crabgrass” value ([8]; Rate 250 g/ha, Preemergence) was 1. The “Plant response rating, Nutsedge” value ([9]; Rate 62 g/ha, Postemergence) was 1, the “Nutsedge plant response rating” value ([9]; Rate 62 g/ha, Preemergence) was 0 and the “Plant response rating, Nutsedge” value ([9]; Rate 125 g/ha, Postemergence) was 1. For the same molecule, the “Nutsedge plant response rating” value ([9]; Rate 125 g/ha, Preemergence) was 0, the “Plant response rating, Nutsedge” value ([9]; Rate 250 g/ha, Postemergence) was 2 and the “Plant response rating, Nutsedge” value ([9]; Rate 250 g/ha, Preemergence) was 0. The “Plant response rating, Rape” value (rape (Brassica napus); Rate 62 g/ha, Postemergence) was 10, the “Rape plant response rating” value (rape (Brassica napus); Rate 62 g/ha, Preemergence) was 2 and the “Plant response rating, Rape” value (rape (Brassica napus); Rate 125 g/ha, Postemergence) was 10. The “Rape plant response rating” value (rape (Brassica napus); Rate 125 g/ha, Preemergence) was 7, the “Plant response rating, Rape” value (rape (Brassica napus); Rate 250 g/ha, Postemergence) was 10 and the “Plant response rating, Rape” value (rape (Brassica napus); Rate 250 g/ha, Preemergence) was 10. For the same molecule, the “Plant response rating, Blackgrass” value ([10]; Rate 62 g/ha, Postemergence) was 3, the “Blackgrass plant response rating” value ([10]; Rate 62 g/ha, Preemergence) was 1 and the “Plant response rating, Blackgrass” value ([10]; Rate 125 g/ha, Postemergence) was 4. The “Blackgrass plant response rating” value ([10]; Rate 125 g/ha, Preemergence) was 5, the “Plant response rating, Blackgrass” value ([10]; Rate 250 g/ha, Postemergence) was 8 and the “Plant response rating, Blackgrass” value ([10]; Rate 250 g/ha, Preemergence) was 8. For the same molecule, the “Plant response rating, Wheat” value ([11]; Rate 62 g/ha, Postemergence) was 2, the “Wheat plant response rating” value ([11]; Rate 62 g/ha, Preemergence) was 0 and the “Plant response rating, Wheat” value ([11]; Rate 125 g/ha, Postemergence) was 4. The “Wheat plant response rating” value ([11]; Rate 125 g/ha, Preemergence) was 1, the “Plant response rating, Wheat” value ([11]; Rate 250 g/ha, Postemergence) was 4 and the “Plant response rating, Wheat” value ([11]; Rate 250 g/ha, Preemergence) was 2. For the same molecule, the “Plant response rating, Morningglory” value ([12]; Rate 62 g/ha, Postemergence) was 10, the “Morningglory plant response rating” value ([12]; Rate 62 g/ha, Preemergence) was 3 and the “Plant response rating, Morningglory” value ([12]; Rate 125 g/ha, Postemergence) was 10. The “Morningglory plant response rating” value ([12]; Rate 125 g/ha, Preemergence) was 3, the “Plant response rating, Morningglory” value ([12]; Rate 250 g/ha, Postemergence) was 10 and the “Plant response rating, Morningglory” value ([12]; Rate 250 g/ha, Preemergence) was 10. For the same molecule, the “Plant response rating, Ducksalad” value [13, 16] was 3, the “Plant response rating, Ducksalad” value [13, 17] was 4 and the “Plant response rating, Ducksalad” value [13, 18] was 6. The “Plant response rating, Barnyardgrass” value [14, 16] was 3, the “Plant response rating, Barnyardgrass” value [14, 17] was 4 and the “Plant response rating, Barnyardgrass” value [14, 18] was 5. The “Plant response rating, S. Flatsedge” value [15, 16] was 3, the “Plant response rating, S. Flatsedge” value [15, 17] was 5 and the “Plant response rating, S. Flatsedge” value [15, 18] was 7. The “Plant response rating, Rice” value (rice (Oryza sativa); [16]) was 3, the “Plant response rating, Rice” value (rice (Oryza sativa); [17]) was 4 and the “Plant response rating, Rice” value (rice (Oryza sativa); [18]) was 5.
